# Laboratory results as given in patent US6833456B2, “Indolyl-urea derivatives of thienopyridines useful as antiangiogenic agents, and methods for their use” (Agouron Pharmaceuticals, Inc., priority 2002, dated 2004).
# “And” between values parts separate entries of the source, which are not always exact repeats. Identical values can stand only once.
# Tests used:
# [1] = molecular target: T1, KDR (VEGFR2) (Homo sapiens, UniProt P35968); test: KDR (VEGFR2) phosphorylation in PAE-KDR cells assay; assay type: cell-based; settings: PAE cells overexpressing human KDR, VEGF stimulated; read-out: PAE KDR autophos IC50
# T1 construct: expressed in transfected cells; host or cells: porcine aorta endothelial (PAE) cells
# T1 sequence (P35968 20-1356): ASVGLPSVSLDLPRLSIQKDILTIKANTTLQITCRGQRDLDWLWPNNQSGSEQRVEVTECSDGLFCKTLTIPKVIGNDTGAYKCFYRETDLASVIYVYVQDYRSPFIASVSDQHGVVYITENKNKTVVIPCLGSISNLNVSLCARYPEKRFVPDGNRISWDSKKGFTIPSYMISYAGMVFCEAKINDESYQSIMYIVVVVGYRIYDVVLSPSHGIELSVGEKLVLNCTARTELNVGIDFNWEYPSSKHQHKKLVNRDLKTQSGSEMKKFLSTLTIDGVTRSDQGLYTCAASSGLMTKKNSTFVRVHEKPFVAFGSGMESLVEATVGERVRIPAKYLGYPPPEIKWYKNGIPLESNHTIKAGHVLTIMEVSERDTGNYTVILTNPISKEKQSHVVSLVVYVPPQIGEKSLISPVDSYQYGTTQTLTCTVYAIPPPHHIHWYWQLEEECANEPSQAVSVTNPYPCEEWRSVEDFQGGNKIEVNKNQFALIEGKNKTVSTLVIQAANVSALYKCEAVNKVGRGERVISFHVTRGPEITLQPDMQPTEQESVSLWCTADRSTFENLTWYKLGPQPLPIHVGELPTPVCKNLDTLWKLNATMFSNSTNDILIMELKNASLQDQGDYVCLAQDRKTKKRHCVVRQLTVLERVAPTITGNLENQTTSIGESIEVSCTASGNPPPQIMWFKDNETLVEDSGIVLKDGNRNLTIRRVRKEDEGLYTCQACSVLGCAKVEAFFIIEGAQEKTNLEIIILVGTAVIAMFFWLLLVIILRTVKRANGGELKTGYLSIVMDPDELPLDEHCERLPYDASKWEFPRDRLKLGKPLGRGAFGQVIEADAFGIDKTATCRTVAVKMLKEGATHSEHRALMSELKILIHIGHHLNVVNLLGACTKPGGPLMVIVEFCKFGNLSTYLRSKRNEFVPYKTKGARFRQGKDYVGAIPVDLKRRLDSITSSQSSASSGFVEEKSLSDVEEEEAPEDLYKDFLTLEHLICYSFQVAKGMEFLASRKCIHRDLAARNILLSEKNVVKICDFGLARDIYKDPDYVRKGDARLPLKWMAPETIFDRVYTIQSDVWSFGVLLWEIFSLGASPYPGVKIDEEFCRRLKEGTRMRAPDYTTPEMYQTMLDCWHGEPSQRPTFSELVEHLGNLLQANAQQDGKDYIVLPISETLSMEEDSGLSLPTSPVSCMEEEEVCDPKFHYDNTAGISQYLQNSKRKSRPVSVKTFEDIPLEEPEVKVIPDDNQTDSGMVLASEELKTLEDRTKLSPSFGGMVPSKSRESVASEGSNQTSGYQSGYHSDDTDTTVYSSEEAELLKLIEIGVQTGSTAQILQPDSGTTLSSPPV
# Procedure: This assay determines the ability of a test compound to inhibit the autophosphorylation of KDR in porcine aorta endothelial (PAE)-KDR cells. PAE cells that overexpress human KDR were used in this assay. The cells were cultured in Ham's F12 media supplemented with 10% fetal bovine serum (FBS) and 400 ug/mL G418. Thirty thousands cells were seeded into each well of a 96-well plate in 75 μL of growth media and allowed to attach for 6 hours at 37° C. Cells were then exposed to the starvation media (Ham's F12 media supplemented with 0.1% FBS) for 16 hours. After the starvation period was over, 10 μL of test agent in 5% DMSO in starvation media were added to the test wells and 10 μL of the vehicle (5% DMSO in starvation media) were added into the control wells. The final DMSO concentration in each well was 0.5%. Plates were incubated at 37° C. for 1 hour and the cells were then stimulated with 500 ng/ml VEGF (commercially available from R & D System) in the presence of 2 mM Na3VO4 for 8 minutes. The cells were washed once with 1 mm Na3VO4 in HBSS and lysed by adding 50 μL per well of lysis buffer. One hundred μL of dilution buffer were then added to each well and the diluted cell lysate was transferred to a 96-well goat ant-rabbit coated plate (commercially available from Pierce) which was pre-coated with Rabbit anti Human Anti-flk-1 C-20 antibody (commercially available from Santa Cruz). The plates were incubated at room temperature for 2 hours and washed seven times with 1% Tween 20 in PBS. HRP-PY20 (commercially available from Santa Cruz) was diluted and added to the plate for a 30-minute incubation. Plates were then washed again and TMB peroxidase substrate (commercially available from Kirkegaard & Perry) was added for a 10-minute incubation. One hundred μL of 0.09 N H2SO4 was added to each well of the 96-well plates to stop the reaction. Phosphorylation status was assessed by spectrophotometer reading at 450 nm. IC50 values were calculated by curve fitting using a four-parameter analysis.
# [2] = test system: human umbilical vein endothelial cells (HUVEC); test: HUVEC+VEGF proliferation assay; assay type: cell-based; settings: Homo sapiens, HUVEC, 72 h, VEGF 6 ng/mL, MTT
# Procedure: This assay determines the ability of a test compound to inhibit the growth factor-stimulated proliferation of human umbilical vein endothelial cells (“HUVEC”). HUVEC cells (passage 3-4, Clonetics, Corp.) were thawed into EGM2 culture medium (Clonetics Corp) in T75 flasks. Fresh EGM2 medium was added to the flasks 24 hours later. Four or five days later, cells were exposed to another culture medium (F12K medium supplemented with 10% fetal bovine serum (FBS), 60 μg/mL endothelial cell growth supplement (ECGS), and 0.1 mg/mL heparin). Exponentially-growing HUVEC cells were used in experiments thereafter. Ten to twelve thousand HUVEC cells were plated in 96-well dishes in 100 μl of rich, culture medium (described above). The cells were allowed to attach for 24 hours in this medium. The medium was then removed by aspiration and 105 μl of starvation media (F12K+1% FBS) was added to each well. After 24 hours, 15 μl of test agent dissolved in 1% DMSO in starvation medium or this vehicle alone was added into each treatment well; the final DMSO concentration was 0.1%. One hour later, 30 μl of VEGF (30 ng/mL) in starvation media was added to all wells except those containing untreated controls; the final VEGF concentration was 6 ng/mL. Cellular proliferation was quantified 72 hours later by MTT dye reduction, at which time cells were exposed for 4 hours MTT (Promega Corp.). Dye reduction was stopped by addition of a stop solution (Promega Corp.) and absorbance at 595 nm was determined on a 96-well spectrophotometer plate reader.
# [3] = molecular target: T2, unphosphorylated VEGF-R2Δ50 (FLVK) (Homo sapiens, UniProt P35968, DEL940-989/E990V); test: VEGF-R2 coupled spectrophotometric assay, unphosphorylated construct (FLVK); assay type: biochemical; settings: for inhibition at 0.05 µM: percent inhibition at 50 nM
# T2 construct: VEGF-R2Δ50 contains residues 806-939 and 990-1171; made in house; host or cells: baculovirus/insect cell system
# T2 sequence (P35968 with tags, fused parts or gaps DEL940-989/E990V limits assumed): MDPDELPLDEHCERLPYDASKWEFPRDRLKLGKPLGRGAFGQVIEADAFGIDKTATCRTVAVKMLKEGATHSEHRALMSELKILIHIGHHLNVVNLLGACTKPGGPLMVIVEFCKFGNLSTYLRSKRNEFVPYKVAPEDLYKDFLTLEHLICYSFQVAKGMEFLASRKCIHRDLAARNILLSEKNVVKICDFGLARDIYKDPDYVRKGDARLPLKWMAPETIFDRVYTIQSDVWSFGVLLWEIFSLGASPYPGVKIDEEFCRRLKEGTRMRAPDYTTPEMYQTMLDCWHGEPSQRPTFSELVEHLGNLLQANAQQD
# Method in brief: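 Continuous coupled assay (PEP, PK, LDH; NADH loss at 340 nm) in 200 mM HEPES pH 7.5 with 3 mM ATP, 20 mM poly(E4Y1), 60 mM MgCl2 plus 2 mM MnCl2, started with 5-40 nM non-autophosphorylated VEGF-R2Δ50. Ki values from activity across compound concentrations, Morrison fit.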
# [4] = molecular target: T3, PDGFRβ (Homo sapiens, UniProt P09619); test: PAE-PDGFRβ phosphorylation in PAE-PDGFRB cells assay; assay type: cell-based; settings: PAE cells overexpressing human PDGFRβ, PDGF-BB stimulated; read-out: PAE PDGFR autophos IC50
# T3 construct: expressed in transfected cells; host or cells: porcine aorta endothelial (PAE) cells
# T3 sequence (P09619 33-1106): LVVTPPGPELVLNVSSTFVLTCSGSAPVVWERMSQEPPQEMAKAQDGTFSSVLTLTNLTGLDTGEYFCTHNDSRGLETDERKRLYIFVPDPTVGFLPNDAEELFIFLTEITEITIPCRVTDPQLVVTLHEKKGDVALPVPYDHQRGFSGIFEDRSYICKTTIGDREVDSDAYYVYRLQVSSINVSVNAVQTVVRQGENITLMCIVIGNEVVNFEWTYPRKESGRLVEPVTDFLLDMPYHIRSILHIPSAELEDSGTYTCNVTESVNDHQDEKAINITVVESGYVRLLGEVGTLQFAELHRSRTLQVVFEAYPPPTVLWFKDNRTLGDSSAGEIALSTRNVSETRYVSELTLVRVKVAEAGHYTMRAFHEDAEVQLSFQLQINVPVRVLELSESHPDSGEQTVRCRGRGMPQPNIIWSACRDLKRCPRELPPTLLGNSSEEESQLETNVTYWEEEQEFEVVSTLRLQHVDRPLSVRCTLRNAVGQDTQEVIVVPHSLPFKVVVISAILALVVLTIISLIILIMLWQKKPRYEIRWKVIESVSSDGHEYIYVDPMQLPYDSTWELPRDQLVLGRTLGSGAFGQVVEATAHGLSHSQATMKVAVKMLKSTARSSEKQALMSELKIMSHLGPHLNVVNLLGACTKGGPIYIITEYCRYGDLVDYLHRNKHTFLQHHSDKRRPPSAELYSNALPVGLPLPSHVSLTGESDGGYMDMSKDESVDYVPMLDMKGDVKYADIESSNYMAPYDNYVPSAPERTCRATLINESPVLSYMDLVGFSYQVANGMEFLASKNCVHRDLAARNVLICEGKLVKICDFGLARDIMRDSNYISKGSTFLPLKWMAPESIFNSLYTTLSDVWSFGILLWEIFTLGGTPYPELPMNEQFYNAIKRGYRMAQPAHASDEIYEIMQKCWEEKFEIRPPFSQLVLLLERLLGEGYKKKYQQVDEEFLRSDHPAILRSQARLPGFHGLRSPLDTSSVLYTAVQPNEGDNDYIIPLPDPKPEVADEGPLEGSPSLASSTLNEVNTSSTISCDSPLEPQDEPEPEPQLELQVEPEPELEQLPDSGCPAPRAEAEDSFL
# Method in brief: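 PAE cells overexpressing human PDGFRβ, serum-starved 16 h (0.1% FBS), compound 1 h at 37° C (0.5% DMSO), then 1 μg/mL PDGF-BB with 2 mM Na3VO4 for 8 min. Receptor captured by anti-PDGFRβ, phosphotyrosine detected by HRP-PY20/TMB at 450 nm; IC50 by four-parameter fit.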
Compound,IC50 [1],Ki [3] [nM],inhibition at 0.05 µM [3] [%],IC50 [4],IC50 [2] [nM]
"CO[C@H]1CCN(C(=O)c2cc3nccc(Oc4ccc5c(c4)cc(C)n5C(=O)NCCCO)c3s2)C1 [Example 9b, 5-[2-(3S-Methoxy-pyrrolidine-1-carbonyl)-thieno[3,2-b]pyridin-7-yloxy]-2-methyl-indole-1-carboxylic acid (3-hydroxy-propyl)-amide]",0.67 nM,0.488,97,60 nM,0.33
"CNC(=O)n1c(C)cc2c(F)c(Oc3ccnc4cc(-c5nc(C(C)(C)O)cs5)sc34)ccc21 [Example 3k, 4-Fluoro-5-{2-[4-(1-hydroxy-1-methyl-ethyl)-thiazol-2-yl]-thieno[3,2-b]pyridin-7-yloxy}-2-methyl-indole-1-carboxylic acid methylamide]",0.3 nM,0.071,100,18.4 nM,–
"CNC(=O)n1c(C)c(Cl)c2c(F)c(Oc3ccnc4cc(C(=O)N5CC[C@H](OC)C5)sc34)ccc21 [Example 6b, 3-Chloro-4-fluoro-5-[2-(3S-methoxy-pyrrolidine-1-carbonyl)-thieno[3,2-b]pyridin-7-yloxy]-2-methyl-indole-1-carboxylic acid methylamide]",0.952 nM,0.647,99,21.2 nM,1.46
"CO[C@H]1CCN(C(=O)c2cc3nccc(Oc4ccc5c(cc(C)n5C(=O)NC5CC5)c4F)c3s2)C1 [Example 5h, 4-Fluoro-5-[2-(3S-methoxy-pyrrolidine-1-carbonyl)-thieno[3,2-b]pyridin-7-yloxy]-2-methyl-indole-1-carboxylic acid cyclopropylamide]",0.29 nM,0.52,98,9.9 nM,0.28
"CO[C@H]1CCN(C(=O)c2cc3nccc(Oc4ccc5c(c4F)c(Cl)c(C)n5C(=O)NC4CC4)c3s2)C1 [Example 6c, 3-Chloro-4-fluoro-5-[2-(3S-methoxy-pyrrolidine-1-carbonyl)-thieno[3,2-b]pyridin-7-yloxy]-2-methyl-indole-1-carboxylic acid cyclopropyl-amide]",1.27 nM,0.688,97,32 nM,0.99
"C#CCNC(=O)n1c(C)cc2c(F)c(Oc3ccnc4cc(C(=O)N5CC[C@@H](O)C5)sc34)ccc21 [Example 5p, 4-Fluoro-5-[2-((R)-3-hydroxy-pyrrolidine-1-carbonyl)-thieno[3,2-b]pyridin-7-yloxy]-2-methyl-indole-1-carboxylic acid prop-2-ynylamide]",0.35 nM,0.083,100,4.6 nM,–

# Further lines, with some results ahead:
IC50 [1],Ki [3] [nM],inhibition at 0.05 µM [3] [%],IC50 [4],Compound,IC50 [2] [nM]
0.73 nM and 0.41 nM,0.51,97,11.3 nM,"C#CCNC(=O)n1c(C)cc2cc(Nc3ccnc4cc(C(=O)N5CCC[C@@H]5CO)sc34)ccc21 [Example 1e, 5-[2-(2R-Hydroxymethyl-pyrrolidine-1-carbonyl)-thieno[3,2-b]pyridin-7-ylamino]-2-methyl-indole-1-carboxylic acid prop-2-ynylamide]",0.18
0.24 nM,0.105,99,26 nM,"CCNC(=O)n1c(C)cc2cc(Oc3ccnc4cc(C(=O)N5CC[C@H](OC)C5)sc34)ccc21 [Example 9e, 5-[2-(3S-Methoxy-pyrrolidine-1-carbonyl)-thieno[3,2-b]pyridin-7-yloxy]-2-methyl-indole-1-carboxylic acid ethylamide]",–
0.26 nM,0.504,96,62 nM,"C#CCNC(=O)n1c(C)cc2cc(Nc3ccnc4cc(C(=O)N5CCC[C@@H]5COC)sc34)ccc21 [Example 7d, 5-[2-(2R-Methoxymethyl-pyrrolidine-1-carbonyl)-thieno[3,2-b]pyridin-7-ylamino]-2-methyl-indole-1-carboxylic acid prop-2-ynylamide]",–
0.26 nM,0.475,98,–,"C#CCNC(=O)n1c(C)cc2cc(Oc3ccnc4cc(C(=O)N5C[C@H](OC)[C@@H](OC)C5)sc34)ccc21 [Example 4q, 5-[2-(3S,4S-Dimethoxy-pyrrolidine-1-carbonyl)-thieno[3,2-b]pyridin-7-yloxy]-2-methyl-indole-1-carboxylic acid prop-2-ynylamide]",0.27
0.42 nM and 0.7 nM,1.1,98,165 nM and 98 nM,"CO[C@H]1CN(C(=O)c2cc3nccc(Nc4ccc5c(c4)cc(C)n5C(=O)NC4CC4)c3s2)C[C@@H]1OC [Example 1s, 5-[2-(3S,4S-Dimethoxy-pyrrolidine-1-carbonyl)-thieno[3,2-b]pyridin-7-ylamino]-2-methyl-indole-1-carboxylic acid cyclopropylamide]",0.308
2.7 nM and 6.9 nM,1.11,60,> 1000 nM,"CNC(=O)n1c(C)cc2cc(Nc3ccnc4cc(C(=O)N5C[C@H](O)C[C@H]5C(C)(C)O)sc34)ccc21 [Example 3d, 5-{2-[(2S,4R)-4-Hydroxy-2-(1-hydroxy-1-methyl-ethyl)-pyrrolidine-1-carbonyl]-thieno[3,2-b]pyridin-7-ylamino}-2-methyl-indole-1-carboxylic acid methylamide]",61.6
1.44 nM and 1.1 nM,3.24,81,56 nM,"CO[C@H]1CCN(C(=O)c2cc3nccc(Oc4ccc5c(c4)cc(C)n5C(=O)NCCO)c3s2)C1 [Example 9c, 5-[2-(3S-Methoxy-pyrrolidine-1-carbonyl)-thieno[3,2-b]pyridin-7-yloxy]-2-methyl-indole-1-carboxylic acid (2-hydroxy-ethyl)-amide]",–
0.24 nM,0.202,97,–,"CNC(=O)n1c(C)cc2cc(Oc3ccnc4cc(C(=O)N5C[C@H](OC)[C@@H](OC)C5)sc34)ccc21 [Example 8b, 5-[(2-{[(3S,4S)-3,4-Dimethoxypyrrolidin-1-yl]carbonyl}thieno[3,2-b]pyridin-7-yl)oxy]-2-dimethyl-1H-indole-1-carboxylic acid methylamide]",–
0.178 nM,0.095,100,9.9 nM,"CNC(=O)n1c(C)cc2c(F)c(Oc3ccnc4cc(C(=O)N5CC[C@H](OC)C5)sc34)ccc21 [Example 5f, 4-Fluoro-5-[2-(3S-methoxy-pyrrolidine-1-carbonyl)-thieno[3,2-b]pyridin-7-yloxy]-2-methyl-indole-1-carboxylic acid methylamide]",0.116
